Data taken from PubChem BioAssay (NCI).
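Assay format: 96-well plates, 48-hour exposure. TGI is the concentration that stops growth completely.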

How the values were obtained:
Assay in all cases: inhibition of tumour cell growth, NCI panel, 48 h
[1] = tested on: UACC-257 melanoma
[2] = tested on: SR leukemia
[3] = tested on: HOP-92 NSCLC
[4] = tested on: T-47D breast
[5] = tested on: TK-10 renal
[6] = tested on: MDA-N
[7] = tested on: IGROV1 ovarian
[8] = tested on: HCT-15 colon
[9] = tested on: A549 NSCLC
[10] = tested on: NCI/ADR-RES ovarian
[11] = tested on: OVCAR-3 ovarian
[12] = tested on: OVCAR-5 ovarian
[13] = tested on: A498 renal
[14] = tested on: 786-0 renal
[15] = tested on: ACHN renal
[16] = tested on: NCI-H226 lung
[17] = tested on: SNB-19 CNS
[18] = tested on: MALME-3M melanoma
[19] = tested on: SK-OV-3 ovarian
[20] = tested on: BT-549 breast

`C#C[C@]1(O)CC[C@H]2[C@@H]3CCC4=C/C(=N\OCCN(CC)CC)CC[C@]4(C)[C@H]3CC[C@@]21C` was tested, and the TGI [1] was 16.9 µM, the TGI [2] was greater than 31.3 µM and the TGI [3] was 52.9 µM. For the same compound, the TGI [4] was 40.9 µM, the TGI [5] was 23.5 µM and the TGI [6] was 6.24 µM. The TGI [7] was 17.1 µM, the TGI [8] was 25.3 µM and the TGI [9] was greater than 41.4 µM. It also gave a TGI [10] of 8.5 µM, a TGI [11] of 8.91 µM and a TGI [12] of 32.2 µM. For the same compound, the TGI [13] was 28.9 µM, the TGI [14] was 9.42 µM and the TGI [15] was 28.1 µM. The TGI [16] was 29.8 µM, the TGI [17] was 18.5 µM and the TGI [18] was 10.2 µM. The TGI [19] was 34.4 µM and the TGI [20] was 31.5 µM.
In the case of `O=S(=O)(NC1OCCCC1I)c1ccccc1` (stereo not given), the TGI [1] is reported as greater than 100 µM, the TGI [2] is reported as greater than 100 µM and the TGI [3] is reported as greater than 100 µM. For the same compound, the TGI [4] was greater than 100 µM, the TGI [5] was greater than 100 µM and the TGI [6] was greater than 100 µM. The TGI [7] was greater than 100 µM, the TGI [8] was greater than 100 µM and the TGI [9] was greater than 100 µM. The TGI [10] was greater than 100 µM, the TGI [11] was greater than 100 µM and the TGI [12] was greater than 100 µM. For the same compound, the TGI [13] was greater than 100 µM, the TGI [14] was greater than 100 µM and the TGI [15] was greater than 100 µM. The TGI [16] was greater than 100 µM, the TGI [17] was greater than 100 µM and the TGI [18] was greater than 100 µM. For the same compound, the TGI [19] was greater than 100 µM and the TGI [20] was greater than 100 µM.
With `O=S(=O)(O)c1cc(N=Nc2cc(S(=O)(=O)O)c3cccnc3c2O)ccc1/C=C/c1ccc(N=Nc2cc(S(=O)(=O)O)c3cccnc3c2O)cc1S(=O)(=O)O` the TGI [1] was greater than 100 µM, the TGI [2] was 51.1 µM and the TGI [3] was greater than 100 µM. The TGI [4] was greater than 100 µM, the TGI [5] was greater than 100 µM and the TGI [6] was greater than 100 µM. For the same compound, the TGI [7] was greater than 100 µM, the TGI [8] was greater than 100 µM and the TGI [9] was greater than 100 µM. It also gave a TGI [10] greater than 100 µM, a TGI [11] greater than 100 µM and a TGI [12] greater than 100 µM. The TGI [13] was greater than 100 µM, the TGI [14] was greater than 100 µM and the TGI [15] was greater than 100 µM. It also gave a TGI [16] greater than 100 µM, a TGI [17] greater than 100 µM and a TGI [18] greater than 100 µM. It also gave a TGI [19] greater than 100 µM and a TGI [20] greater than 100 µM.
`C[N+](C)(C)CC(=O)N/N=C(/CC1OC(=O)c2ccccc21)c1ccccc1O` (stereo not given) was tested, and the TGI [1] was 78.9 µM, the TGI [2] was 34 µM and the TGI [3] was 87.6 µM. The TGI [4] was greater than 100 µM, the TGI [5] was greater than 100 µM and the TGI [6] was greater than 100 µM. The TGI [7] was greater than 100 µM, the TGI [8] was greater than 100 µM and the TGI [9] was greater than 100 µM. It also gave a TGI [10] of 55.4 µM, a TGI [11] greater than 100 µM and a TGI [12] greater than 100 µM. It also gave a TGI [13] of 77.1 µM, a TGI [14] of 86.5 µM and a TGI [15] of 66.4 µM. For the same compound, the TGI [16] was 57.4 µM, the TGI [17] was greater than 100 µM and the TGI [18] was greater than 100 µM. It also gave a TGI [19] greater than 100 µM and a TGI [20] of 95.7 µM.
`CC1(C)CC(=O)c2c(nc(SSc3nc4c(c(-c5ccc(Br)cc5)c3C#N)C(=O)CC(C)(C)C4)c(C#N)c2-c2ccc(Br)cc2)C1` showed a TGI [1] greater than 10 µM, a TGI [2] greater than 10 µM and a TGI [3] greater than 10 µM. The TGI [4] was greater than 10 µM, the TGI [5] was greater than 10 µM and the TGI [6] was greater than 10 µM. The TGI [7] was greater than 10 µM, the TGI [8] was greater than 10 µM and the TGI [9] was greater than 10 µM. It also gave a TGI [10] greater than 10 µM, a TGI [11] greater than 10 µM and a TGI [12] greater than 10 µM. It also gave a TGI [13] greater than 10 µM, a TGI [14] greater than 10 µM and a TGI [15] greater than 10 µM. The TGI [16] was greater than 10 µM, the TGI [17] was greater than 10 µM and the TGI [18] was greater than 10 µM. The TGI [19] was greater than 10 µM and the TGI [20] was greater than 10 µM.
`CC1(C)CCC[C@@]2(C)C1C(=O)[C@@H]1O[C@]1(C)[C@@H]2CO` (stereo not given in full) gave a TGI [1] greater than 100 µM, a TGI [2] of 24.9 µM and a TGI [3] of 88 µM. It also gave a TGI [4] greater than 100 µM, a TGI [5] greater than 100 µM and a TGI [6] greater than 100 µM. It also gave a TGI [7] greater than 100 µM, a TGI [8] greater than 100 µM and a TGI [9] greater than 100 µM. For the same compound, the TGI [10] was greater than 100 µM, the TGI [11] was 50.8 µM and the TGI [12] was greater than 100 µM. For the same compound, the TGI [13] was greater than 100 µM, the TGI [14] was greater than 100 µM and the TGI [15] was greater than 100 µM. It also gave a TGI [16] greater than 100 µM, a TGI [17] greater than 100 µM and a TGI [18] greater than 100 µM. For the same compound, the TGI [19] was greater than 100 µM and the TGI [20] was 43.6 µM.
Compound `COC(=O)C1=C(O)CCCC(CCC(C)=O)=C1` has a TGI [1] greater than 100 µM, a TGI [2] of 66 µM and a TGI [3] of 95.7 µM. For the same compound, the TGI [4] was greater than 100 µM, the TGI [5] was greater than 100 µM and the TGI [6] was greater than 100 µM. It also gave a TGI [7] greater than 100 µM, a TGI [8] greater than 100 µM and a TGI [9] greater than 100 µM. For the same compound, the TGI [10] was greater than 100 µM, the TGI [11] was greater than 100 µM and the TGI [12] was greater than 100 µM. For the same compound, the TGI [13] was greater than 100 µM, the TGI [14] was 77.3 µM and the TGI [15] was greater than 100 µM. For the same compound, the TGI [16] was greater than 100 µM, the TGI [17] was greater than 100 µM and the TGI [18] was greater than 100 µM. It also gave a TGI [19] greater than 100 µM and a TGI [20] greater than 100 µM.
